Measured values reported in US20260199294A1, “PEPTIDE DRUG CONJUGATES” (Oncopeptides Innovation AB, priority 2022, published 2026).

What was measured:
[1] = test system: BJ Fibroblasts (normal cells); test: In vitro cytotoxicity (CellTiter-Glo, 72 h) in BJ fibroblasts; format: cell-based, human
Experimental: (§1) All cells were cultivated in RPMI medium 1640 (IX). All media was supplemented with […] penicillin/streptomycin, 10% heat inactivated FBS, 0.1 mM Sodium Pyruvate, 1×MEM NEAA (ThermoFisher) and 1 mM HEPES. The DERL-2 cells had higher FBS (20%) and 40 ng/mL IL-2 was added. hPBMCs were thawed and allowed to acclimatise overnight and then stimulated with 10 µg/mL PHA-M and 40 ng/mL IL-2 for 4 hours before being exposed to test compounds. All cells, except for hPBMCs, were grown to reach log phase before being exposed to the test compounds.
(§2) Test compounds were dissolved in 100% DMSO and added to a 384 assay plate. Additional DMSO was added to maintain the same final DMSO concentration (0.2%) in all wells. 25 μL cell suspension with a concentration of 100000 cells/mL was added to each well. The cells were cultured in a CO2 incubator at 37° C. for 72 h. Plates were equilibrated to room temperature for 30 minutes before adding 20 μL CellTiter-Glo® 2.0 (Promega) reagent to all wells. The plate was then allowed to stabilize for 20 minutes before recording the luminescence (Em filter 700 nm) in an Envision plate reader.

[2] = test system: hPBMC (Human Peripheral blood mononuclear cells); test: In vitro cytotoxicity (CellTiter-Glo, 72 h) in hPBMC; format: cell-based; settings: stimulated with PHA-M and IL-2
Experimental: as §1, §2

MM.1S cells [3] = test: Cellular retention/efflux: intracellular and extracellular concentrations by LC-MS/MS; format: in vitro ADME, human; settings: MM.1S cells, 5, 15 and 60 min; metabolites measured after treatment with the parent Example compound
Experimental: Methods: MM.1S cells at 2×10^6 cells/mL were seeded at 250 μL per well in a 96-well plate. Cells were incubated in the presence of a test compound for 5, 15, and 60 min before pelleting cells by centrifugation at +4° C. for 5 min. Cell media was immediately harvested to a second plate and stored at −80° C. until further analysis. Pelleted cells were washed once with ice cold PBS before storage at −80° C. until further analysis.
Cells were lysed and protein in the media were precipitated using acetonitrile dimethylformamide, 9:1 containing internal standard. Samples were centrifuged and the supernatant was analyzed with LC-MS/MS (ACQUITY UPLC-Xevo TQ-S micro) to determine compound concentration.
Example compound 1, bendamustine and melphalan were used as test compounds.
Method: Method described in Biological example 3.
Example compounds 1, 2, 3, 4, 6, 7 and 10 were investigated. Intracellular metabolites are formed from all compounds tested. The compound used for cell treatment was metabolised to the ester-hydrolysed compound (here called Metabolite A) and to the amide-hydrolysed compound (called Metabolite B). The example compound structures and the structures of the two metabolites for the respective compounds were as shown in Table 4. The Metabolites B formed under the conditions tested were compounds with structure as Examples 17 and 18: […]

[4] = test system: nuclear DNA (HPRT) prepared from MM.1S cells; test: Direct DNA damage, PCR amplification with HPRT primers; format: biochemical, human; settings: 0.25 μM compound, 30 minutes at 37° C.
Experimental: (§3) Method: DNA was prepared from MM.1S cells by QIAGEN genomic tip 20/G according to protocol described in Furda et al., Methods Mol Biol, 2012. 1 μg of DNA was treated with 0.25 μM compound for 30 minutes at 37° C. DMSO was used as control treatment. 20 ng of the treated DNA was PCR amplified using Phusion Hot Start II High Fidelity PCR Master Mix (Thermo Scientific) and primers directed to either HPRT or primers directed to mitochondrial DNA (mtDNA) was used, generating 10.4 or 8.9 kb fragments, respectively. The PCR reactions were separated on a 1% agarose gel and visualized by ChemiDoc™ MP Imaging System (BioRad). Example compounds 1, 2 and 38 were investigated, as were compounds 18 and 20, which are metabolites of compound 1. They were compared with bendamustine, melphalan and DMSO control. The results for compounds 1, 2, 18 and 20 with the HPRT primers are shown in FIG. 4(A); the results with the mtDNA primers are shown in FIG. 4(B).

[5] = test system: mitochondrial DNA (mtDNA) prepared from MM.1S cells; test: Direct DNA damage, PCR amplification with mtDNA primers; format: biochemical, human; settings: 0.25 μM compound, 30 minutes at 37° C.
Experimental: as §3

MM.1S cells [6] = test: DNA fragmentation, APO-BrdU TUNEL assay by FACS; format: cell-based, human
Experimental: Method: 1×10^6 MM.1S cells (CRL-2974, ATCC) were treated with Example compound 1 or Bendamustine at 0.006, 0.06, 0.6 or 6 μM for 24 h. After incubation, the cells were washed with PBS (10010-015, Gibco), fixed in Flow Cytometry Fixation Buffer (FC004, R&D Systems) for 10 min and stored in 70% ethanol at −20° C. overnight. The deoxythymidine analog (BrdUTP) was present in the experiment and served to label the DNA break sites. Next day, the cells were washed and stained using an APO-BrdU™ TUNEL Assay Kit, according to the manufacturer's protocol (A23210, Invitrogen), followed by the analysis using BD FACSCanto™ II. The percentage ofTUNEL positive cells indicates the percentage of cells with fragmented DNA.

| SMILES | IC50 [1] | extracellular concentration (media) (MM.1S cells [3]) | intracellular concentration (MM.1S cells [3]) | DNA damage on nuclear DNA (HPRT 10.4 kb PCR band) [4] | DNA damage on mitochondrial DNA (8.9 kb PCR band) [5] | also measured |
| --- | --- | --- | --- | --- | --- | --- |
| CC(C)C[C@H](NC(=O)[C@@H](N)CCc1nc2cc(N(CCCl)CCCl)ccc2n1C)C(=O)N(C)C [Example compound 30, (2S)-2-[[(2S)-2-Amino-4-[5-[bis(2-chloroethyl)amino]-1-methyl-benzimidazol-2-yl]butanoyl]amino]-N,N,4-trimethyl-pentanamide] | > 2000 nM |  |  |  |  |  |
| CCOC(=O)[C@H](Cc1nc2cc(N(CCCl)CCCl)ccc2n1C)NC(=O)[C@@H](N)CC(C)C [Example compound 10, Ethyl (2S)-2-[[(2S)-2-amino-4-methyl-pentanoyl]amino]-3-[5-[bis(2-chloroethyl)amino]-1-methyl-benzimidazol-2-yl]propanoate] |  |  |  |  |  | IC50 [2]: 26.4 nM |
| Cl.Cl.Cn1c(CC[C@H](N)C(=O)O)nc2cc(N(CCCl)CCCl)ccc21 [Example compound 18, (S)-2-amino-4-(5-(bis(2-chloroethyl)amino)-1-methyl-1H-benzo[d]imidazol-2-yl)butanoic acid] |  | low levels of it are found in the media outside the cells | rapidly formed inside the cells | effectively damaged | effectively damaged |  |
| CCOC(=O)[C@H](CC(C)C)NC(=O)[C@@H](N)CCc1nc2cc(N(CCCl)CCCl)ccc2n1-c1ccccc1 [Example compound 13, Ethyl (2S)-2-[[(2S)-2-amino-4-[5-[bis(2-chloroethyl)amino]-1-phenyl-benzimidazol-2-yl]butanoyl]amino]-4-methyl-pentanoate] | > 2000 nM |  |  |  |  |  |
| Cn1c(CCCC(=O)O)nc2cc(N(CCCl)CCCl)ccc21 [Bendamustine, reference compound] |  | quite high and decreased over time | Low intracellular concentrations could be detected of bendamustine and the level decreases over time | no or very minor effect on DNA damage | no or very minor effect on DNA damage | cells with DNA breaks (MM.1S cells [6]; 0.6 μM for 24 h): not the case; dose response effect on DNA damage (TUNEL positive cells) (MM.1S cells [6]; 0.006, 0.06, 0.6 or 6 μM for 24 h): no obvious effect |
| CC(C)C[C@H](NC(=O)[C@@H](N)CCc1nc2cc(N(CCCl)CCCl)ccc2n1C)C(=O)O [Example compound 20, (2S)-2-[[(2S)-2-amino-4-[5-[bis(2-chloroethyl)amino]-1-methyl-benzimidazol-2-yl]butanoyl]amino]-4-methyl-pentanoic acid] |  |  |  | DNA damaging effect but to a lesser degree compared to Example compounds 1, 2 and 18, but greater than Bendamustine or Melphalan | DNA damaging effect but to a lesser degree compared to Example compounds 1, 2 and 18, but greater than Bendamustine or Melphalan |  |
| CCOC(=O)[C@H](Cc1ccc(F)cc1)NC(=O)[C@H](CCc1nc2cc(N(CCCl)CCCl)ccc2n1C)NC(C)=O [Example compound 34, Ethyl (2S)-2-[[(2S)-2-acetamido-4-[5-[bis(2-chloroethyl)amino]-1-methyl-benzimidazol-2-yl]butanoyl]amino]-3-(4-fluorophenyl)propanoate] | > 2000 nM |  |  |  |  |  |
| CCOC(=O)[C@H](Cc1ccc(F)cc1)NC(=O)[C@@H](N)CCc1nc2cc(N(CCCl)CCCl)ccc2n1C [Example compound 2, Ethyl (2S)-2-[[(2S)-2-amino-4-[5-[bis(2-chloroethyl)amino]-1-methyl-benzimidazol-2-yl]butanoyl]amino]-3-(4-fluorophenyl)propanoate] |  |  |  | strong DNA damaging effect | strong DNA damaging effect | IC50 [2]: 7.5 nM |
| N[C@@H](Cc1ccc(N(CCCl)CCCl)cc1)C(=O)O [Melphalan, reference compound] |  | high and constant throughout the experiment | low intracellular concentration | no or very minor effect on DNA damage | no or very minor effect on DNA damage |  |
| CCOC(=O)[C@@H](N)CCc1nc2cc(N(CCCl)CCCl)ccc2n1C.Cl.Cl [Example compound 38, Ethyl (2S)-2-amino-4-[5-[bis(2-chloroethyl)amino]-1-methyl-benzimidazol-2-yl]butanoate] |  |  |  | effectively damaged | effectively damaged |  |
